From the NIST ThermoML archive (doi:10.1016/j.fluid.2018.01.015) come the findings set out here.

For data set [1] the following is noted: Crystal; DTA.
Data set [2] in a line: Molar enthalpy of transition or fusion. As to conditions: Crystal; DSC.

± gives the expanded uncertainty stated by the source.

Consider `Cc1cc(C)c(C(=O)P(=O)(c2ccccc2)c2ccccc2)c(C)c1` [(2,4,6-trimethylbenzoyl) diphenylphosphine oxide], for which the Normal melting temperature in data set [1] came to 92.66 ± 0.39 °C. Besides, the “Molar enthalpy of transition or fusion” value in data set [2] is 6.03 ± 0.172 kcal/mol.
